The values below come from ChEMBL document CHEMBL1134195, “Synthesis of analogues of the O-beta-D-ribofuranosyl nucleoside moiety of liposidomycins. Part 2: role of the hydroxyl groups upon the inhibition of MraY” (Bioorg Med Chem Lett, 2001).

Where only a bound is given, the exact number is not on record here.

This assay is described as follows: Inhibitory activity against translocase (Mra Y) obtained from bacteria.

In the case of `NC[C@H]1O[C@@H](OC[C@H]2O[C@@H](n3ccc(=O)[nH]c3=O)C[C@@H]2O)[C@H](O)[C@@H]1O`, the midpoint of inhibition, the IC50, lay at 80 µM. In the case of `NC[C@H]1O[C@@H](OC[C@@H]2CC[C@H](n3ccc(=O)[nH]c3=O)O2)[C@H](O)[C@@H]1O`, the IC50 amounted to 120 µM. On to `NC[C@H]1O[C@@H](OC[C@@H]2C[C@@H](O)[C@H](n3ccc(=O)[nH]c3=O)O2)[C@H](O)[C@@H]1O`, for which 10 µM corresponded to half-maximal inhibition (IC50). In turn, `NC[C@H]1O[C@@H](OC[C@H]2O[C@@H](n3ccc(=O)[nH]c3=O)[C@H](O)[C@@H]2O)C[C@@H]1O` returned an IC50 of 115 µM. Against the preceding molecule, the IC50 is about 12-fold higher. In turn, `NC[C@H]1O[C@@H](OC[C@H]2O[C@@H](n3ccc(=O)[nH]c3=O)[C@H](O)[C@@H]2O)[C@H](O)[C@@H]1O` returned an IC50 of 50 µM. To `NC[C@H]1O[C@@H](O[C@@H](CO)[C@H]2O[C@@H](n3ccc(=O)[nH]c3=O)[C@H](O)[C@@H]2O)[C@H](O)[C@@H]1O` belongs 5 µM; to `NC[C@@H]1C[C@@H](O)[C@H](OC[C@H]2O[C@@H](n3ccc(=O)[nH]c3=O)[C@H](O)[C@@H]2O)O1`, greater than 1000 µM.
